Laboratory results: PubChem BioAssay AID1963974 (Molecular Pharmacology Branch, DTP, NCI, 2024)
Values joined by “and” are separate entries in the source; they are usually repeats but may differ in a detail not shown here. Identical values can stand only once.

Test system: 648629-189-R-J1-PDC spheroids with HUVEC/MSC, viability
Assay: Anticancer human tumor 648629-189-R-J1-PDC patient-derived bladder carcinoma cell line growth inhibition [PI3K]
Details: for viability, T/C: stronger effect = lower value
Text: Combinatorial screen of targeted agents with the PI3K inhibitors inavolisib, alpelisib, duvelisib, and copanlisib in multi-cell type tumor spheroids
A high-throughput screen of multi-cell type tumor spheroids was designed to identify active combinations of targeted small molecules and PI3K pathway inhibitors. Complex spheroids include a stromal component modeled by human endothelial cells (HUVEC) and fibroblasts modeled by human mesenchymal stem cells (MSCs). The concentration ranges selected for each drug and investigational agent were based upon clinically achievable concentrations if the clinical Cmax of the agent was known.
Compounds. The drugs and investigational agents: inavolisib (NSC800729), alpelisib (NSC765974), duvelisib (NSC772469), copanlisib (NSC816437), ipatasertib (NSC767898), afuresertib (NSC778305), talazoparib (NSC767125), sapanisertib (NSC764658), selumetinib (NSC741078), tovorafenib (DAY101, NSC766906), vemurafenib (NSC761431), ravoxertinib (NSC781343), sotorasib (NSC818433), MRTX1133 (NSC 836407), abemaciclib (NSC 768073), palbociclib (NSC758247), venetoclax (NSC 766270), SY5609 (NSC837396), enzalutamide (NSC755605), and darolutamide (NSC825331), were obtained from the National Cancer Institute (NCI) Developmental Therapeutics Program Chemical Repository. The FDA-approved anticancer drug set is available from the NCI Developmental Therapeutics Program. […] The stock solutions were prepared in dimethyl sulfoxide (DMSO, Sigma-Aldrich, St. Louis, MO, cat. D2650) at 800-fold the tested concentration and stored at -70 degrees C prior to their use. All drugs and investigational agents were tested over a range starting from a high concentration at or near the clinical Cmax and decreasing in half-log increments. If the clinical Cmax for an agent had not been determined, the highest concentration tested was 10 microM.
Cell Culture. All cells were maintained in an incubator at 37 degrees C and 5% CO2 with 95% humidity. The PDC lines were cultured according to standard operating procedures established by the NCI PDMR (https://pdmr.cancer.gov/sops/default.htm). All PDCs were thawed and cultured in Matrigel-coated flasks prepared with a working solution of 1X Ham's F-12 nutrient mix, without supplementation (Invitrogen, Waltham, MA, cat. 11765054), 100 U/mL penicillin-streptomycin (Invitrogen, cat. 15140122), and 2.5% Matrigel (Corning Inc., Corning, NY, cat. 354248) for the first three passages. The 354836-022-R-J1-PDC, 475296-252-R-J1-PDC, and 997726-040-R-J2-PDC lines were cultured in 6A media, which includes advanced DMEM/F-12 (Thermo Fisher Scientific, cat. 12634028), 10 mM HEPES (Thermo Fisher Scientific, cat. 15630080), 1X GlutaMAX supplement (Thermo Fisher Scientific, cat. 35050061), 0.1 mg/mL primocin (InvivoGen, San Diego, CA, cat. ant-pm-2), 10% defined fetal bovine serum, heat inactivated (HyClone Laboratories Inc., Logan, UT, cat. SH30070.03HI), 50% L-WRN conditioned media (ATCC, cat. CRL-3276), 1.25 mM N-Acetyl-L-cysteine (Sigma-Aldrich, cat. A9165), 10 mM nicotinamide (Sigma-Aldrich, cat. N0636), 1X B-27 supplement (Thermo Fisher Scientific, cat. 17504044), 1X N-2 supplement (Thermo Fisher Scientific, cat. 17502048), and 10 microM Y-27632 dihydrochloride (Tocris Bioscience, Bristol, United Kingdom, cat. 1254). The 624824-186-R-J2-PDC line was cultured in 6C/Colon 1B media, which includes all 6A media components plus 50 ng/mL human EGF recombinant protein (Thermo Fisher Scientific, cat. PHG0311). […]

[1] = compound alone, run of 04/24/2023
[2] = compound alone, run of 04/25/2023
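Further: spheroids exposed to agents for seven days before reading.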
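Wherever viability, T/C is given: percent of vehicle control luminescence where 100% = DMSO treated spheroids.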

SMILES | viability, T/C (compound 0.000316 µM) | viability, T/C (compound 0.001 µM) | viability, T/C (compound 0.00316 µM) | viability, T/C (compound 0.01 µM) | viability, T/C (compound 0.0316 µM) | viability, T/C (compound 0.1 µM) | IC50 (curve of compound) | viability, T/C (compound 0.316 µM) | viability, T/C (compound 1 µM) | viability, T/C (compound 3.16 µM) | viability, T/C (compound 10 µM) | IC50 [1] | IC50 [2] | viability, T/C (compound 0.00949 µM) | viability, T/C (compound 0.03 µM) | viability, T/C (compound 0.0949 µM) | viability, T/C (compound 0.3 µM) | viability, T/C (compound 0.949 µM) | viability, T/C (compound 3 µM)
CC(=O)c1c(C)c2cnc(Nc3ccc(N4CCNCC4)cn3)nc2n(C2CCCC2)c1=O | 101% [middle of 4 runs] | 102% [middle of 4 runs] | 115% [middle of 4 runs] | 97.2% [middle of 4 runs] | 100% [middle of 4 runs] | 111% [middle of 4 runs] | > 0.1 µM | – | – | – | – | – | – | – | – | – | – | – | –
CC(C)NCC(C(=O)N1CCN(c2ncnc3c2C(C)CC3O)CC1)c1ccc(Cl)cc1 (configuration not stated) | – | – | – | – | 95.2% and 106% (2×) and 98.2% | – | 1.06 µM [middle of 4 runs] | 86% [middle of 4 runs] | 48% [middle of 4 runs] | 29.7% [middle of 4 runs] | 16.6% and 15.3% (2×) and 14.4% | – | – | – | – | – | – | – | –
CC(C)n1nc(-c2ccc3oc(N)nc3c2)c2c(N)ncnc21 | 111% [middle of 4 runs] | 102% [middle of 4 runs] | 97.9% [middle of 4 runs] | 89.7% [middle of 4 runs] | 78.6% [middle of 4 runs] | 34% [middle of 4 runs] | 63.4 nM [middle of 4 runs] | – | – | – | – | – | – | – | – | – | – | – | –
CC(Cn1ccc(-c2ccc(C#N)c(Cl)c2)n1)NC(=O)c1cc(C(C)O)[nH]n1 (configuration not stated) | – | – | – | – | 108% [middle of 4 runs] | 94.8% [middle of 4 runs] | > 10 µM | 105% [middle of 4 runs] | 104% [middle of 4 runs] | 88.8% [middle of 4 runs] | 81.1% [middle of 4 runs] | – | – | – | – | – | – | – | –
CC(Nc1ccc2c(c1)OCCn1cc(N3C(=O)OCC3C(F)F)nc1-2)C(N)=O (configuration not stated) | – | – | 104% [middle of 8 runs] | 99.7% [middle of 8 runs] | 106% [middle of 8 runs] | 95.2% [middle of 8 runs] | – | 81.1% [middle of 8 runs] | 73.8% [middle of 8 runs] | – | – | > 1 µM | – | – | – | – | – | – | –
CC(Nc1ncnc2nc[nH]c12)c1cc2cccc(Cl)c2c(=O)n1-c1ccccc1 (configuration not stated) | – | – | – | – | 104% [middle of 8 runs] | 104% [middle of 8 runs] | – | 103% [middle of 8 runs] | 97.5% [middle of 8 runs] | 97.1% [middle of 8 runs] | 90.1% [middle of 8 runs] | – | > 10 µM | – | – | – | – | – | –
CC1(C)CCC(CN2CCN(c3ccc(C(=O)NS(=O)(=O)c4ccc(NCC5CCOCC5)c([N+](=O)[O-])c4)c(Oc4cnc5[nH]ccc5c4)c3)CC2)=C(c2ccc(Cl)cc2)C1 | – | – | – | – | 102% (2×) and 94.5% and 111% | 101% (2×) and 96.3% and 98.1% | > 10 µM and 4.88 µM and 5.19 µM | 110% [middle of 4 runs] | 98.5% [middle of 4 runs] | 89% [middle of 4 runs] | – | – | – | – | – | – | – | – | –
CC1(C)CCC(Nc2ncc(C(F)(F)F)c(-c3c[nH]c4c(P(C)(C)=O)c(C#N)ccc34)n2)CN1 (configuration not stated) | – | – | – | – | 30.3% [middle of 4 runs] | 27.1% [middle of 4 runs] | < 0.0316 µM | 32.2% [middle of 4 runs] | 36.1% [middle of 4 runs] | 39.7% (2×) and 40.8% and 38.2% | 5.52% [middle of 4 runs] | – | – | – | – | – | – | – | –
CCCS(=O)(=O)Nc1ccc(F)c(C(=O)c2c[nH]c3ncc(-c4ccc(Cl)cc4)cc23)c1F | – | – | – | – | 103% (2×) and 105% and 102% | 108% [middle of 4 runs] | 5.33 µM [middle of 4 runs] | 112% [middle of 4 runs] | 110% [middle of 4 runs] | 91.3% [middle of 4 runs] | 0.48% [middle of 4 runs] | – | – | – | – | – | – | – | –
CCN1CCN(Cc2ccc(Nc3ncc(F)c(-c4cc(F)c5nc(C)n(C(C)C)c5c4)n3)nc2)CC1 | – | – | 107% [middle of 4 runs] | 96.7% [middle of 4 runs] | 103% [middle of 4 runs] | 103% [middle of 4 runs] | > 1 µM | 109% [middle of 4 runs] | 117% [middle of 4 runs] | – | – | – | – | – | – | – | – | – | –
CNC(=O)c1ccc(N2C(=S)N(c3ccc(C#N)c(C(F)(F)F)c3)C(=O)C2(C)C)cc1F | – | – | – | – | 107% (2×) and 95.9% and 101% | 98.2% [middle of 4 runs] | > 10 µM | 107% [middle of 4 runs] | 105% [middle of 4 runs] | 92.6% and 104% (2×) and 108% | 91% [middle of 4 runs] | – | – | – | – | – | – | – | –
COc1c(OCCCN2CCOCC2)ccc2c3n(c(=NC(=O)c4cnc(N)nc4)nc12)CCN3 | – | – | 108% [middle of 8 runs] | 103% [middle of 8 runs] | 97.5% [middle of 8 runs] | 64.5% [middle of 8 runs] | – | 18.6% [middle of 8 runs] | 3.42% [middle of 8 runs] | – | – | – | 144 nM [middle of 7 runs] | – | – | – | – | – | –
C[C@@H](NC(=O)c1ncnc(N)c1Cl)c1ncc(C(=O)Nc2cc(C(F)(F)F)c(Cl)cn2)s1 | – | – | – | – | 105% [middle of 4 runs] | 98.5% [middle of 4 runs] | > 10 µM | 103% [middle of 4 runs] | 106% and 107% (2×) and 91.5% | 114% [middle of 4 runs] | 117% [middle of 4 runs] | – | – | – | – | – | – | – | –
Cc1nc(NC(=O)N2CCCC2C(N)=O)sc1-c1ccnc(C(C)(C)C(F)(F)F)c1 (configuration not stated) | – | – | – | – | 103% [middle of 8 runs] | 101% [middle of 8 runs] | – | 95.9% [middle of 8 runs] | 77.4% [middle of 8 runs] | 60% [middle of 8 runs] | 37.3% [middle of 8 runs] | 5.36 µM [middle of 8 runs] | – | – | – | – | – | – | –
Cn1cnc2c(F)c(Nc3ccc(Br)cc3Cl)c(C(=O)NOCCO)cc21 | – | – | – | – | – | – | > 3 µM | – | – | – | – | – | – | 108% and 98.8% (2×) and 95.3% | 96.8% [middle of 4 runs] | 99.2% [middle of 4 runs] | 94.5% [middle of 4 runs] | 103% [middle of 4 runs] | 84.9% [middle of 4 runs]
Cn1nccc1Nc1nccc(-c2ccn(C(CO)c3ccc(Cl)c(F)c3)c(=O)c2)n1 (configuration not stated) | – | – | – | – | 107% [middle of 4 runs] | 104% [middle of 4 runs] | > 10 µM | 112% [middle of 4 runs] | 110% [middle of 4 runs] | 110% [middle of 4 runs] | 81.2% [middle of 4 runs] | – | – | – | – | – | – | – | –
Cn1ncnc1[C@H]1c2n[nH]c(=O)c3cc(F)cc(c23)N[C@@H]1c1ccc(F)cc1 | 105% [middle of 4 runs] | 105% [middle of 4 runs] | 101% [middle of 4 runs] | 92.9% [middle of 4 runs] | 73.1% [middle of 4 runs] | 63.2% [middle of 4 runs] | > 0.1 µM | – | – | – | – | – | – | – | – | – | – | – | –
